# Reference: publication PMC6941952, “A homogeneous bioluminescent immunoassay to probe cellular signaling pathway regulation” (Communications Biology, 2020)
# Test system: phospho-IκBα (Ser32)
# Test: NanoBiT cell-based immunoassay, phosphorylated IκBα in MCF-7 cells
# Set-up: species or system human
# Settings: for Raw data / Subtract reagent background: TNF
# Method: Prior to NanoBiT Cell-Based Immunoassay, 50,000 cells were seeded in 160 µl of complete growth media per well of a 96-well plate and incubated overnight. The cells were checked under microscope and it was determined that 50,000 cells per well in 96-well plate is under 90% confluency for all cells tested. If necessary, the cell culture media were replaced with serum-free media after the cells were stably adherent on the plate and incubated overnight. To treat cells with activators or inhibitors, medium was changed to 30 µl of medium containing inhibitors. If activation of a specific pathway is needed, the cells were stimulated with 10 µl of medium containing activators. To lyse the cells, 10 µl of lysis buffer containing 0.1% digitonin diluted in 1X immunoassay buffer with protease and phosphatase inhibitors was added and the plates were mixed vigorously for 20 min. Then, 50 µl of an antibody mix containing two primary antibodies against the target protein and NanoBiT detecting antibodies (0.3 µl each per well), diluted in 1X immunoassay buffer was added to the lysates. The plates were incubated at 23 °C for 90 min, followed by the addition of 25 µl of Nano-Glo® reagent consisting of Nano-Glo® Luciferase Assay Substrate mixed with 1X immunoassay buffer. Luminescence was measured using a plate-reading luminometer.
# In all, 50,000 MCF-7 cells were seeded in 160 µl complete growth medium per well of a 96-well plate and incubated overnight. Half of the cells were treated with 50 ng per ml TNFα and half with vehicle. Cells were lysed as described above and a mixture of NanoBiT secondary antibodies with primary antibodies at the matrix concentrations described in Fig. 2a were added. After 90 min incubation, the Nano-Glo® reagent was added to the reactions as described above and luminescence was measured using a plate-reading luminometer.
# Single dose or dose response inhibitor treatments were performed prior to activation of the pathways as follows. For IκBα, the cells were treated in 30 µl medium with IKK16 or MG132 for 60 min before the addition of 10 µl of DMEM containing appropriate concentration of TNFα. To measure phosphorylation of AKT or STAT3, the corresponding NanoBiT immunoassays were developed with MCF-7 or A431 cells, respectively, according the same scheme used to develop the IκBα assay using the primary antibodies for AKT and STAT3 described in the reagents section. For the AKT assay, MCF-7 cells were incubated overnight in phenol-red free DMEM medium (Gibco #21063-029) without serum. Treatment with LY294002 was performed in 30 µl medium and cells were incubated for 60 min before the addition of 1 µM Insulin. To measure STAT3 phosphorylation, A431 cells were incubated overnight in DMEM medium without serum. […] After addition of the stimulators, the cells were incubated for additional times as follows. IκBα phosphorylation and degradation analyses required both time courses and single time points as described in figures. […] The NanoBiT immunoassay protocol was followed as described above.
# All 96-well assay plates were read using a GloMax® 96 Microplate Luminometer from Promega. The instrument was set to 0.5 s integration time. In order to obtain net change of signal, the reagent background values (signal from the well containing all reagent except primary antibodies) were subtracted from the sample values. To plot and analyze the data, Microsoft Excel and GraphPad Prism® Software were used. IC50 values were determined by using a nonlinear regression fit to a sigmoidal dose response (variable slope).
# [1] = plate #3, IkB Ab #3 75 ng/ml, P-IkB Ab #2 75 ng/ml
# [2] = plate #3, IkB Ab #3 75 ng/ml, P-IkB Ab #2 150 ng/ml
# [3] = plate #3, IkB Ab #3 75 ng/ml, P-IkB Ab #2 300 ng/ml
# [4] = plate #3, IkB Ab #3 75 ng/ml, P-IkB Ab #2 600 ng/ml
# [5] = plate #3, IkB Ab #3 75 ng/ml, P-IkB Ab #2 1200 ng/ml
# [6] = plate #3, IkB Ab #3 150 ng/ml, P-IkB Ab #2 75 ng/ml
# [7] = plate #3, IkB Ab #3 150 ng/ml, P-IkB Ab #2 150 ng/ml
# [8] = plate #3, IkB Ab #3 150 ng/ml, P-IkB Ab #2 300 ng/ml
# [9] = plate #3, IkB Ab #3 150 ng/ml, P-IkB Ab #2 600 ng/ml
# [10] = plate #3, IkB Ab #3 150 ng/ml, P-IkB Ab #2 1200 ng/ml
# [11] = plate #3, IkB Ab #3 300 ng/ml, P-IkB Ab #2 75 ng/ml
# [12] = plate #3, IkB Ab #3 300 ng/ml, P-IkB Ab #2 150 ng/ml
# [13] = plate #3, IkB Ab #3 300 ng/ml, P-IkB Ab #2 300 ng/ml
# [14] = plate #3, IkB Ab #3 300 ng/ml, P-IkB Ab #2 600 ng/ml
# [15] = plate #3, IkB Ab #3 300 ng/ml, P-IkB Ab #2 1200 ng/ml
# [16] = plate #3, IkB Ab #3 600 ng/ml, P-IkB Ab #2 75 ng/ml
# [17] = plate #3, IkB Ab #3 600 ng/ml, P-IkB Ab #2 150 ng/ml
# [18] = plate #3, IkB Ab #3 600 ng/ml, P-IkB Ab #2 300 ng/ml
# [19] = plate #3, IkB Ab #3 600 ng/ml, P-IkB Ab #2 600 ng/ml
# [20] = plate #3, IkB Ab #3 600 ng/ml, P-IkB Ab #2 1200 ng/ml
# [21] = plate #3, IkB Ab #3 1200 ng/ml, P-IkB Ab #2 75 ng/ml
# [22] = plate #3, IkB Ab #3 1200 ng/ml, P-IkB Ab #2 150 ng/ml
# [23] = plate #3, IkB Ab #3 1200 ng/ml, P-IkB Ab #2 300 ng/ml
# [24] = plate #3, IkB Ab #3 1200 ng/ml, P-IkB Ab #2 600 ng/ml
# [25] = plate #3, IkB Ab #3 1200 ng/ml, P-IkB Ab #2 1200 ng/ml
substance,measurement,setting,value
TNFα,Fold change (TNF-treated /Non-treated),"plate #2, IkB Ab #2 (Mouse) 600 ng/ml, P-IkB Ab #1 (Rabbit) 1200 ng/ml, listed as TNF",0.8
same,Fold change (TNF-treated /Non-treated),"plate #2, IkB Ab #2 (Mouse) 1200 ng/ml, P-IkB Ab #1 (Rabbit) 75 ng/ml",1.511
same,Fold change (TNF-treated /Non-treated),"plate #2, IkB Ab #2 (Mouse) 1200 ng/ml, P-IkB Ab #1 (Rabbit) 75 ng/ml, listed as TNF",1.5
same,Fold change (TNF-treated /Non-treated),"plate #2, IkB Ab #2 (Mouse) 1200 ng/ml, P-IkB Ab #1 (Rabbit) 150 ng/ml",2.468
same,Fold change (TNF-treated /Non-treated),"plate #2, IkB Ab #2 (Mouse) 1200 ng/ml, P-IkB Ab #1 (Rabbit) 150 ng/ml, listed as TNF",2.5
same,Fold change (TNF-treated /Non-treated),"plate #2, IkB Ab #2 (Mouse) 1200 ng/ml, P-IkB Ab #1 (Rabbit) 300 ng/ml",2.168
same,Fold change (TNF-treated /Non-treated),"plate #2, IkB Ab #2 (Mouse) 1200 ng/ml, P-IkB Ab #1 (Rabbit) 300 ng/ml, listed as TNF",2.2
same,Fold change (TNF-treated /Non-treated),"plate #2, IkB Ab #2 (Mouse) 1200 ng/ml, P-IkB Ab #1 (Rabbit) 600 ng/ml",2.1086
same,Fold change (TNF-treated /Non-treated),"plate #2, IkB Ab #2 (Mouse) 1200 ng/ml, P-IkB Ab #1 (Rabbit) 600 ng/ml, listed as TNF",2.1
same,Fold change (TNF-treated /Non-treated),"plate #2, IkB Ab #2 (Mouse) 1200 ng/ml, P-IkB Ab #1 (Rabbit) 1200 ng/ml",1.784
same,Fold change (TNF-treated /Non-treated),"plate #2, IkB Ab #2 (Mouse) 1200 ng/ml, P-IkB Ab #1 (Rabbit) 1200 ng/ml, listed as TNF",1.8
same,Raw data,[1],20510
same,Subtract reagent background,[1],5320
same,Raw data,[2],20430
same,Subtract reagent background,[2],5240
same,Raw data,[3],19120
same,Subtract reagent background,[3],3930
same,Raw data,[4],17590
same,Subtract reagent background,[4],2400
same,Raw data,[5],16090
same,Subtract reagent background,[5],900
same,Raw data,[6],27550
same,Subtract reagent background,[6],12360
same,Raw data,[7],26450
same,Subtract reagent background,[7],11260
same,Raw data,[8],24490
same,Subtract reagent background,[8],9300
same,Raw data,[9],21590
same,Subtract reagent background,[9],6400
same,Raw data,[10],19970
same,Subtract reagent background,[10],4780
same,Raw data,[11],26220
same,Subtract reagent background,[11],11030
same,Raw data,[12],24040
same,Subtract reagent background,[12],8850
same,Raw data,[13],23970
same,Subtract reagent background,[13],8780
same,Raw data,[14],20830
same,Subtract reagent background,[14],5640
same,Raw data,[15],19500
same,Subtract reagent background,[15],4310
same,Raw data,[16],24590
same,Subtract reagent background,[16],9400
same,Raw data,[17],22810
same,Subtract reagent background,[17],7620
same,Raw data,[18],23190
same,Subtract reagent background,[18],8000
same,Raw data,[19],21540
same,Subtract reagent background,[19],6350
same,Raw data,[20],20460
same,Subtract reagent background,[20],5270
same,Raw data,[21],23630
same,Subtract reagent background,[21],8440
same,Raw data,[22],23620
same,Subtract reagent background,[22],8430
same,Raw data,[23],22930
same,Subtract reagent background,[23],7740
same,Raw data,[24],22240
same,Subtract reagent background,[24],7050
same,Raw data,[25],21740
same,Subtract reagent background,[25],6550
same,Fold change (TNF-treated /Non-treated),"plate #3, IkB Ab #3 (Rabbit) 150 ng/ml, P-IkB Ab #2 (Mouse) 75 ng/ml",3.572
same,Fold change (TNF-treated /Non-treated),"plate #3, IkB Ab #3 (Rabbit) 150 ng/ml, P-IkB Ab #2 (Mouse) 150 ng/ml",2.066
same,Fold change (TNF-treated /Non-treated),"plate #3, IkB Ab #3 (Rabbit) 150 ng/ml, P-IkB Ab #2 (Mouse) 300 ng/ml",1.553
same,Fold change (TNF-treated /Non-treated),"plate #3, IkB Ab #3 (Rabbit) 150 ng/ml, P-IkB Ab #2 (Mouse) 600 ng/ml",1.339
same,Fold change (TNF-treated /Non-treated),"plate #3, IkB Ab #3 (Rabbit) 150 ng/ml, P-IkB Ab #2 (Mouse) 1200 ng/ml",0.8968
same,Fold change (TNF-treated /Non-treated),"plate #3, IkB Ab #3 (Rabbit) 300 ng/ml, P-IkB Ab #2 (Mouse) 75 ng/ml",2.895
same,Fold change (TNF-treated /Non-treated),"plate #3, IkB Ab #3 (Rabbit) 300 ng/ml, P-IkB Ab #2 (Mouse) 150 ng/ml",1.664
same,Fold change (TNF-treated /Non-treated),"plate #3, IkB Ab #3 (Rabbit) 300 ng/ml, P-IkB Ab #2 (Mouse) 300 ng/ml",1.602
same,Fold change (TNF-treated /Non-treated),"plate #3, IkB Ab #3 (Rabbit) 300 ng/ml, P-IkB Ab #2 (Mouse) 600 ng/ml",1.153
same,Fold change (TNF-treated /Non-treated),"plate #3, IkB Ab #3 (Rabbit) 300 ng/ml, P-IkB Ab #2 (Mouse) 1200 ng/ml",0.9289
same,Fold change (TNF-treated /Non-treated),"plate #3, IkB Ab #3 (Rabbit) 600 ng/ml, P-IkB Ab #2 (Mouse) 75 ng/ml",2.035
same,Fold change (TNF-treated /Non-treated),"plate #3, IkB Ab #3 (Rabbit) 600 ng/ml, P-IkB Ab #2 (Mouse) 150 ng/ml",1.414
same,Fold change (TNF-treated /Non-treated),"plate #3, IkB Ab #3 (Rabbit) 600 ng/ml, P-IkB Ab #2 (Mouse) 300 ng/ml",1.541
same,Fold change (TNF-treated /Non-treated),"plate #3, IkB Ab #3 (Rabbit) 600 ng/ml, P-IkB Ab #2 (Mouse) 600 ng/ml",1.301
same,Fold change (TNF-treated /Non-treated),"plate #3, IkB Ab #3 (Rabbit) 600 ng/ml, P-IkB Ab #2 (Mouse) 1200 ng/ml",1.1557
same,Fold change (TNF-treated /Non-treated),"plate #3, IkB Ab #3 (Rabbit) 1200 ng/ml, P-IkB Ab #2 (Mouse) 75 ng/ml",1.581
same,Fold change (TNF-treated /Non-treated),"plate #3, IkB Ab #3 (Rabbit) 1200 ng/ml, P-IkB Ab #2 (Mouse) 150 ng/ml",1.544
same,Fold change (TNF-treated /Non-treated),"plate #3, IkB Ab #3 (Rabbit) 1200 ng/ml, P-IkB Ab #2 (Mouse) 300 ng/ml",1.173
same,Fold change (TNF-treated /Non-treated),"plate #3, IkB Ab #3 (Rabbit) 1200 ng/ml, P-IkB Ab #2 (Mouse) 600 ng/ml",1.469
same,Fold change (TNF-treated /Non-treated),"plate #3, IkB Ab #3 (Rabbit) 1200 ng/ml, P-IkB Ab #2 (Mouse) 1200 ng/ml",1.2818
